By IC50 is commonly meant the concentration that inhibits the measured activity by half. Read a low IC50 as greater potency. As usually defined, the EC50 is the concentration that produces a half-maximal response. A high value points to lower potency in that assay.

Sequence of Btk (Q06187 whole entry): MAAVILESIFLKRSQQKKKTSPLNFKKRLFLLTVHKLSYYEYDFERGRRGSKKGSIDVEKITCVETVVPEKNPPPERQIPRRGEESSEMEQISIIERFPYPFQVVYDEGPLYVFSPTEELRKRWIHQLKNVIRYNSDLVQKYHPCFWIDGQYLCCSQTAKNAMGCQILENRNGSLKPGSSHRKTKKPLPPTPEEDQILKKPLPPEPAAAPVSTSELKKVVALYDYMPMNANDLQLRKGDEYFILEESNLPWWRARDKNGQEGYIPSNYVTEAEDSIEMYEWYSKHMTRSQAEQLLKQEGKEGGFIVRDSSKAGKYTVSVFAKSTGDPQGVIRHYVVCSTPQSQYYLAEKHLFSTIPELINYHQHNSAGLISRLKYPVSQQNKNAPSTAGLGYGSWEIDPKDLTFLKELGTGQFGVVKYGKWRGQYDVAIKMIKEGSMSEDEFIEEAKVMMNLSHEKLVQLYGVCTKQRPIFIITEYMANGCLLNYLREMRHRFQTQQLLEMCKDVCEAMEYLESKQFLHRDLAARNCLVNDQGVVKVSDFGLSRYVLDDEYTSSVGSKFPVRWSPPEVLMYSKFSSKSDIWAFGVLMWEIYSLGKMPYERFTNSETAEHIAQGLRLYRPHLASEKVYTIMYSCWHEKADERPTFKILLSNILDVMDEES

One test concerns the target Btk (Homo sapiens (Human), UniProt Q06187). As to the kind of experiment: standard biochemical Btk Kinase Assay (Example 901). The settings on record: Table 2.
Description: Determination of IC50 values can be accomplished using conventional techniques known in the art. In general, an IC50 can be determined by measuring the activity of a given enzyme in the presence of a range of concentrations of the inhibitor under study. The experimentally obtained values of enzyme activity then are plotted against the inhibitor concentrations used. […] Analogously, other inhibitory concentrations can be defined through appropriate determinations of activity.
Turning to `CCn1nc(Nc2cc(-c3cc(F)cc(N4CCn5c(cc6c5CC(C)(C)C6)C4=O)c3CO)cn(C)c2=O)cc1C` [Example 302, 10-(3-{5-[(1-Ethyl-5-methyl-1H-pyrazol-3-yl)amino]-1-methyl-6-oxo-1,6-dihydropyridin-3-yl}-5-fluoro-2-(hydroxymethyl)phenyl)-4,4-dimethyl-1,10-diazatricyclo[6.4.0.0^2,6]dodeca-2(6),7-dien-9-one], half-maximal inhibition (IC50) required 0.0099 µM.

`Cn1cc(-c2cc(F)cc(N3CCn4c(cc5c4CC(C)(C)C5)C3=O)c2CO)cc(Nc2ccc(N3CCN(C4COC4)CC3)cn2)c1=O` [Example 304, 10-[5-Fluoro-2-(hydroxymethyl)-3-[1-methyl-5-({5-[4-(oxetan-3-yl)piperazin-1-yl]pyridine-2-yl}amino)-6-oxo-1,6-dihydropyridin-3-yl]phenyl]-4,4-dimethyl-1,10-diazatricyclo[6.4.0.0^2,6]dodeca-2(6),7-dien-9-one] had an IC50 of 0.0078 µM. `Cn1cc(-c2cccc(N3CCc4c(sc5c4CCCC5)C3=O)c2CO)nc(Nc2ccc(C3CCN(C4COC4)CC3)cc2)c1=O` [Example 305, 5-[2-(Hydroxymethyl)-3-[4-methyl-6-({4-[1-(oxetan-3-yl)piperidin-4-yl]phenyl}amino)-5-oxo-4,5-dihydropyrazin-2-yl]phenyl]-8-thia-5-azatricyclo[7.4.0.0^2,7]trideca-1(9),2(7)-dien-6-one] registered a half-inhibitory concentration (IC50) of 0.0171 µM. The same measure, in the same setting: the result for `CN1CCN(c2ccc(Nc3cc(-c4cccc(N5CCn6c(cc7c6CCCC7)C5=O)c4CO)nn(C)c3=O)nc2)CC1` [Example 307, 2-(2-(Hydroxymethyl)-3-(1-methyl-5-(5-(4-methylpiperazin-1-yl)pyridin-2-ylamino)-6-oxo-1,6-dihydropyridazin-3-yl)phenyl)-3,4,6,7,8,9-hexahydropyrazino[1,2-a]indol-1(2H)-one] reads 0.0071 µM; that for `Cn1cc(-c2cccc(N3CCc4c(cc5n4CCCC5)C3=O)c2CO)cc(Nc2cc3n(n2)CCOC3)c1=O` [Example 309, 5-[2-(Hydroxymethyl)-3-{1-oxo-1H,2H,3H,4H,6H,7H,8H,9H-pyrido[3,4-b]indolizin-2-yl}phenyl]-1-methyl-3-{4H,6H,7H-pyrazolo[3,2-c][1,4]oxazin-2-ylamino}-1,2-dihydropyridin-2-one], 0.0165 µM; that for `CCN1CCN(c2ccc(Nc3cc(-c4cccc(N5CCc6c(cc7n6CCCC7)C5=O)c4CO)cn(C)c3=O)nc2)CC1` [Example 310, 3-{[5-(4-Ethylpiperazin-1-yl)pyridine-2-yl]amino}-5-[2-(hydroxymethyl)-3-{1-oxo-1H,2H,3H,4H,6H,7H,8H,9H-pyrido[3,4-b]indolizin-2-yl}phenyl]-1-methyl-1,2-dihydropyridin-2-one], 0.0166 µM.

In another test the test system is CD86 surface expression on CD19+/7AAD- mouse splenocytes stimulated with IgM. In words: CD86 Inhibition Assay. Type of test: cell-based. The settings on record: Splenocyte; total mouse splenocytes (Balb/c), IgM stimulation 24 hr.
Protocol: Following the 24 hr incubation, cells are transferred to conical bottom clear 96-well plates and pelleted by centrifugation at 1200×g×5 min. […] Cells are sorted on a BD FACSCalibur and gated on the CD19^+/7AAD^− population. The levels of CD86 surface expression on the gated population is measured versus test compound concentration.
Consider `Cn1cc(-c2cccc(N3CCn4c(cc5c4CCCC5)C3=O)c2CO)nc(Nc2cnn(C3CC3)c2)c1=O` [Example 114, 2-(3-(6-(1-cyclopropyl-1H-pyrazol-4-ylamino)-4-methyl-5-oxo-4,5-dihydropyrazin-2-yl)-2-(hydroxymethyl)phenyl)-3,4,6,7,8,9-hexahydropyrazino[1,2-a]indol-1(2H)-one], for which a half-maximal response (EC50) required 0.188 µM. `Cn1cc(-c2cc(F)cc(N3CCc4c(sc5c4CCCC5)C3=O)c2CO)cc(Nc2ccncn2)c1=O` [Example 115, 5-[5-Fluoro-2-(hydroxymethyl)-3-[1-methyl-6-oxo-5-(pyrimidin-4-ylamino)-1,6-dihydropyridin-3-yl]phenyl]-8-thia-5-azatricyclo[7.4.0.02,7]trideca-1(9),2(7)-dien-6-one] had a concentration giving a half-maximal response (EC50) of 0.078 µM. For the compound `Cn1cc(-c2cc(F)cc(N3CCn4c(cc5c4CCCC5)C3=O)c2CO)cc(Nc2ccc(N3CCN(C4COC4)CC3)cn2)c1=O` [Example 210, 2-(5-fluoro-2-(hydroxymethyl)-3-(1-methyl-5-(5-(4-(oxetan-3-yl)piperazin-1-yl)pyridin-2-ylamino)-6-oxo-1,6-dihydropyridin-3-yl)phenyl)-3,4,6,7,8,9-hexahydropyrazino[1,2-a]indol-1(2H)-one], the EC50 came out at 0.01 µM.

`Cn1cc(-c2cc(F)cc(N3CCc4c(sc5c4CCCC5)C3=O)c2CO)cc(Nc2ccc(N3CCN(C4COC4)CC3)cn2)c1=O` [Example 211, 5-[5-Fluoro-2-(hydroxymethyl)-3-[1-methyl-5-({5-[4-(oxetan-3-yl)piperazin-1-yl]pyridin-2-yl}amino)-6-oxo-1,6-dihydropyridin-3-yl]phenyl]-8-thia-5-azatricyclo[7.4.0.0^2,7]trideca-1(9),2(7)-dien-6-one] showed an EC50 of 0.009 µM. This EC50 and that of the compound before are within 1.5-fold of each other. In the case of `CN1CCN(c2ccc(Nc3cc(-c4cc(F)cc(N5CCc6c(sc7c6CCCC7)C5=O)c4CO)cn(C)c3=O)nc2)CC1` [Example 212, 5-[5-Fluoro-2-(hydroxymethyl)-3-(1-methyl-5-{[5-(4-methylpiperazin-1-yl)pyridine-2-yl]amino}-6-oxo-1,6-dihydropyridin-3-yl)phenyl]-8-thia-5-azatricyclo[7.4.0.0^2,7]trideca-1(9),2(7)-dien-6-one], the response was half-maximal at 0.009 µM (EC50). On the same count and under the same terms, to `CC(C)N(C)Cc1ccc(Nc2cc(-c3cc(F)cc(N4CCc5c(sc6c5CCCC6)C4=O)c3CO)cn(C)c2=O)nc1` [Example 277, 5-[5-Fluoro-2-(hydroxymethyl)-3-{1-methyl-5-[(5-{[methyl(propan-2-yl)amino]methyl}pyridine-2-yl)amino]-6-oxo-1,6-dihydropyridin-3-yl}phenyl]-8-thia-5-azatricyclo[7.4.0.0^2,7]trideca-1(9),2(7)-dien-6-one] belongs 0.028 µM; to `Cn1cc(-c2cc(F)cc(N3CCc4c(sc5c4CCCC5)C3=O)c2CO)cc(Nc2ccc(N3CCOCC3)cn2)c1=O` [Example 289, 2-(5-Fluoro-2-(hydroxymethyl)-3-(1-methyl-5-(5-morpholinopyridin-2-ylamino)-6-oxo-1,6-dihydropyridin-3-yl)phenyl)-3,4,5,6,7,8-hexahydrobenzothieno[2,3-c]pyridin-1(2H)-one], 0.01 µM; to `CN1CCC[C@H]1c1ccc(Nc2cc(-c3cc(F)cc(N4CCn5c(cc6c5CC(C)(C)C6)C4=O)c3CO)cn(C)c2=O)nc1` [Example 290, 10-[5-Fluoro-2-(hydroxymethyl)-3-[1-methyl-5-({5-[(2S)-1-methylpyrrolidin-2-yl]pyridine-2-yl}amino)-6-oxo-1,6-dihydropyridin-3-yl]phenyl]-4,4-dimethyl-1,10-diazatricyclo[6.4.0.0^2,6]dodeca-2(6),7-dien-9-one], 0.01 µM. Consider `CN(C)CCOc1ccc(Nc2cc(-c3cc(F)cc(N4CCc5c(sc6c5CC(C)(C)C6)C4=O)c3CO)cn(C)c2=O)nc1` [Example 296, 10-{3-[5-({5-[2-(Dimethylamino)ethoxy]pyridin-2-yl}amino)-1-methyl-6-oxo-1,6-dihydropyridin-3-yl]-5-fluoro-2-(hydroxymethyl)phenyl}-4,4-dimethyl-7-thia-10-azatricyclo[6.4.0.0^2,6]dodeca-1(8),2(6)-dien-9-one], for which the concentration for a half-maximal effect (EC50) was 0.001 µM.

`Cn1cc(-c2cc(F)cc(N3CCc4c(sc5c4CC(C)(C)C5)C3=O)c2CO)cc(Nc2ccc(C3CCN(C4COC4)CC3)cn2)c1=O` [Example 299, 10-[5-Fluoro-2-(hydroxymethyl)-3-[1-methyl-5-({5-[1-(oxetan-3-yl)piperidin-4-yl]pyridine-2-yl}amino)-6-oxo-1,6-dihydropyridin-3-yl]phenyl]-4,4-dimethyl-7-thia-10-azatricyclo[6.4.0.0^2,6]dodeca-1(8),2(6)-dien-9-one] displayed an EC50 of 0.009 µM. The same measure, in the same setting: the result for `COc1nccc(Nc2cc(-c3cc(F)cc(N4CCn5c(cc6c5CC(C)(C)C6)C4=O)c3CO)cn(C)c2=O)n1` [Example 300] reads 0.009 µM; that for `CN1CCC(c2ccc(Nc3cc(-c4cc(F)cc(N5CCc6c(sc7c6CCCC7)C5=O)c4CO)cn(C)c3=O)nc2)C1` (stereo not shown) [Example 308, 5-[5-Fluoro-2-(Hydroxymethyl)-3-(1-methyl-5-{[5-(1-methylpyrrolidin-3-yl)pyridine-2-yl]amino}-6-oxo-1,6-dihydropyridin-3-yl)phenyl]-8-thia-5-azatricyclo-[7.4.0.0^2,7]trideca-1(9),2(7)-dien-6-one], 0.063 µM. Same read-out and setting: to `Cn1cc(-c2cccc(N3CCn4c(cc5c4CC(C)(C)C5)C3=O)c2CO)cc(Nc2ccc(N3CCN(C4COC4)CC3)cn2)c1=O` [Example 311, 10-[2-(Hydroxymethyl)-3-[1-methyl-5-({5-[4-(oxetan-3-yl)piperazin-1-yl]pyridine-2-yl}amino)-6-oxo-1,6-dihydropyridin-3-yl]phenyl]-4,4-dimethyl-1,10-diazatricyclo[6.4.0.0^2,6]dodeca-2(6),7-dien-9-one] belongs 0.03 µM; to `Cn1cc(-c2cc(F)cc(N3CCc4c(sc5c4CC(C)(C)C5)C3=O)c2CO)cc(Nc2cc3n(n2)CCN(C2COC2)C3)c1=O` [Example 318, 10-[5-Fluoro-2-(hydroxymethyl)-3-(1-methyl-5-{[5-(oxetan-3-yl)-4H,5H,6H,7H-pyrazolo[1,5-a]pyrazin-2-yl]amino}-6-oxo-1,6-dihydropyridin-3-yl)phenyl]-4,4-dimethyl-7-thia-10-azatricyclo[6.4.0.0^2,6]dodeca-1(8),2(6)-dien-9-one], 0.018 µM. For `Cn1cc(-c2cccc(N3CCn4c(cc5c4CCCC5)C3=O)c2CO)cc(Nc2cc3n(n2)CCN(C2COC2)C3)c1=O` [Example 319, 2-(2-(Hydroxymethyl)-3-(1-methyl-5-(5-(oxetan-3-yl)-4,5,6,7-tetrahydropyrazolo[1,5-a]pyrazin-2-ylamino)-6-oxo-1,6-dihydropyridin-3-yl)phenyl)-3,4,6,7,8,9-hexahydropyrazino[1,2-a]indol-1(2H)-one], the 50% effective concentration (EC50) is 0.016 µM. `CN(Cc1cc(Nc2cc(-c3cc(F)cc(N4CCn5c(cc6c5CC(C)(C)C6)C4=O)c3CO)cn(C)c2=O)nn1C)C1COC1` [Example 321, 10-[5-Fluoro-2-(Hydroxymethyl)-3-{1-methyl-5-[(1-methyl-5-{[methyl(oxetan-3-yl)amino]methyl}-1H-pyrazol-3-yl)amino]-6-oxo-1,6-dihydropyridin-3-yl}phenyl]-4,4-dimethyl-1,10-diazatricyclo[6.4.0.0^2,6]dodeca-2(6),7-dien-9-one] had an EC50 of 0.044 µM. This EC50 is about 2.8-fold higher than that of the compound before.
